Source: US11638425B2, “Agent for inducing stress tolerance in plants” (Menicon Co. Ltd., priority 2017, dated 2023)

Tests used:
Type in all cases: in vivo
[1] = test system: HSP17.6C-C1 of Arabidopsis thaliana; test: HSP expression test (HSP17.6C-C1 upstream region linked to GUS, 4-MU production); set-up: key: 4-MU per plant divided by 4-MU of 50 μM geldanamycin positive control; details: soaked 6 hours at 22° C., positive control 50 μM geldanamycin
Procedure: First, a construct linked to β-glucuronidase (GUS) gene was introduced to 1 kb upstream of HSP17.6C-C1 of Arabidopsis thaliana (the family Brassicaceae) to prepare a mutant. Each naphthoquinone compound (shown in Table 1) dissolved in DMSO was diluted to 1 μM, 10 μM, 100 μM, or 1000 μM (final concentration) with deionized water to prepare a test solution of each example (final concentration of DMSO: 1.0% by volume). A 50 μM geldanamycin solution was similarly prepared as a positive control.
Next, two individuals of 7-day-old Arabidopsis thaliana mutants grown in a ⅕ MS medium were soaked in 300 μL of the test solution of each example or the positive control at 22° C. for 6 hours. The Arabidopsis thaliana was washed with deionized water, then soaked in 200 μL of a 4-methylumbelliferyl-β-D-glucuronide hydrate solution containing a surfactant, and incubated at 22° C. for 16 hours in the dark. The fluorescence intensity of the supernatant was measured, and the amount of 4-methylumbelliferone (4-MU) production per plant was calculated. The calculated value of 4-MU was divided by the value of 4-MU of the positive control to calculate a ratio vs. positive control. A higher numerical value means that HSP was expressed at a larger level.
Each shikonin compound or alkannin compound (shown in Table 2) dissolved in DMSO was diluted to 1 μM, 10 μM, 100 μM, or 1000 μM (final concentration) with deionized water to prepare a test solution of each example (final concentration of DMSO: 1.0% by volume). A 50 μM geldanamycin solution was similarly prepared as a positive control. The other test procedures were performed in the same way as in Test Example 1. The calculated value of 4-MU was divided by the value of 4-MU of the positive control to calculate a ratio vs. positive control. […]

maize [2] = test: Salt tolerance improvement test of maize; details: 10 μM, 2 mL/cell; 1.0% NaCl five times every two days; fresh weight
Procedure: (§1) Two parts each involving 9 cells (3×3) were cut out of a 72-cell tray. Seedling soil was placed therein, and water was added. 4 seeds of maize were seeded per cell. The temperature was set to 20° C. using a plant growth chamber, followed by cultivation under 16-hour light and 8-hour dark conditions. After budding, Shikonix Liquid (BG) (manufactured by Ichimaru Pharcos Co., Ltd.) was diluted 500-fold and sprayed as the Lithospermi radix extract to leaf surface in one of the cell trays. The volume of the Shikonix Liquid sprayed was set to 2 mL/cell. The same volume of water was sprayed to the other cell tray and used as a control. Two days later, a 1.0% NaCl solution was prepared and absorbed from the underside of each cell tray. The NaCl solution treatment was performed five times every two days. The above-ground parts were cut off, and their fresh weights were measured. An average value (g/plant) was calculated.
as §1, with “Four parts” for “Two parts”, “budding, each naphthoquinone compound dissolved in DMSO” for “budding, Shikonix Liquid (BG) (manufactured by Ichimaru Pharcos Co., Ltd.)”, “diluted to 10 μM (final concentration) with deionized water to prepare a test solution of each example (final concentration of DMSO: 1.0% by volume). Each test solution was” for “diluted 500-fold and”, “sprayed” for “sprayed as the Lithospermi radix extract”, “the test solution” for “the Shikonix Liquid”

maize [3] = test: Drought tolerance improvement test of maize; details: 10 μM, 2 mL/cell; 19 days without water, counted 5 days after water addition
Procedure: Four parts each involving 9 cells (3×3) were cut out of a 72-cell tray. Seedling soil was placed therein, and water was added. 4 seeds of maize were seeded per cell. The temperature was set to 20° C. using a plant growth chamber, followed by cultivation under 16-hour light and 8-hour dark conditions. After budding, each naphthoquinone compound dissolved in DMSO was diluted to 10 μM (final concentration) with deionized water to prepare a test solution of each example (final concentration of DMSO: 1.0% by volume). Each test solution was sprayed to leaf surface in one of the cell trays. The volume of the test solution sprayed was set to 2 mL/cell. The same volume of water was sprayed to the other cell tray and used as a control. After the spraying, cultivation was continued without the addition of water. 19 days after the spraying, water was added to the soil. 5 days after the water addition, the number of maize survivors was counted and divided by the initial number of growing plants to calculate a survival rate (%).

Arabidopsis thaliana = test: Heat tolerance induction test based on chlorophyll concentration; details: 50 μM in medium; heat-treated at 44° C. for 1 hour; 3 days culture after
Procedure: A ⅕ MS medium was prepared in a 6-well plate, and filter paper was placed thereon. 12 individuals of wild-type Arabidopsis thaliana were seeded per well and grown at 22° C. for 7 days in a plant incubator under 16-hour light and 8-hour dark conditions. Next, the naphthoquinone compound of each example (shown in Table 3) dissolved in DMSO was added to a ⅕ MS medium, and each medium (final concentration: 50 μM) was prepared in a 6-well plate (final concentration of DMSO: 1.0% by volume). A medium containing 1.0% by volume of DMSO was used as a control.
The Arabidopsis thaliana grown for 7 days in the 6-well plate was transplanted, together with the filter paper, to the medium containing the compound and cultured for 1 day in a plant incubator. The plate was placed in a plastic bag and heat-treated at 44° C. for 1 hour in a water bath. After the heat treatment, culture was performed for 3 days in a plant incubator. The leaves of 4 Arabidopsis thaliana individuals were cut out, and chlorophyll was extracted with 300 μL of ethanol. The absorbance of each extract was measured at 649 nm and 665 nm, and the chlorophyll concentration (mg/L) was calculated. A higher chlorophyll concentration means that heat tolerance is better.
The shikonin compound of each example (shown in Table 4) dissolved in DMSO was added to a ⅕ MS medium, and each medium (final concentration: 50 μM) was prepared in a 6-well plate (final concentration of DMSO: 1.0% by volume). A medium containing 1% by volume of DMSO was used as a control. The other test procedures were performed in the same way as in Test Example 3.
The Lithospermi radix extract used was Shikonix Liquid (BG) (trade name, manufactured by Ichimaru Pharcos Co., Ltd.) containing a Lithospermum erythrorhizon root extract. The Shikonix Liquid contained, as major components, shikonin compounds such as acetylshikonin, β-hydroxyisovalerylshikonin, and isobutyrylshikonin. The Shikonix Liquid also contained, as additional minor components, α-methyl-n-butylshikonin, β,β-dimethylacrylshikonin, isovalerylshikonin, and shikonin.
The Shikonix Liquid (BG) was added at a dilution ratio of 150-fold to a ⅕ MS medium. The same amount of water was added as a control. ThermoZyme (manufactured by Fujimikogyo Co., Ltd.) was added at a dilution ratio of 150-fold as a positive control (Reference Example). The other test procedures were performed in the same way as in Test Example 3.

Row | SMILES | Ratio of 4-MU amount vs. positive control ([1]; 1 μM) | Ratio of 4-MU amount vs. positive control ([1]; 10 μM) | Ratio of 4-MU amount vs. positive control ([1]; 100 μM) | Ratio of 4-MU amount vs. positive control ([1]; 1000 μM) | Above-ground part weight (maize [2]) [g/plant] | Survival rate (maize [3]) [%] | Chlorophyll concentration (Arabidopsis thaliana) [mg/L]
1 | O=C1C=CC(=O)c2ccccc21 [Example 1, 1,4-Naphthoquinone] | 0.13 | 0.76 | 0.27 | 0.03 | – | – | –
2 | O=C1C=C(O)C(=O)c2ccccc21 [Example 2, 2-Hydroxy-1,4-naphthoquinone] | 0.14 | 0.15 | 0.47 | 0.04 | – | – | –
3 | O=C1C=CC(=O)c2c(O)cccc21 [Example 3, 5-Hydroxy-1,4-naphthoquinone] | 0.17 | 0.14 | 0.59 | 0.46 | – | – | –
4 | CC1=CC(=O)c2c(O)cccc2C1=O [Example 4, 5-Hydroxy-2-methyl-1,4-naphthoquinone] | 0.13 | 1.0 | 0.18 | 0.06 | – | – | –
5 | O=C1C(Cl)=C(Cl)C(=O)c2ccccc21 [Example 6, 2,3-Dichloro-1,4-naphthoquinone] | 0.47 | 5.12 | 1.86 | 1.16 | 0.726 | 53 | 6.21
6 | O=C1C(Cl)=C(Cl)C(=O)c2c1cccc2[N+](=O)[O-] [Example 8, 2,3-Dichloro-5-nitro-1,4-naphthoquinone] | 0.15 | 1.00 | 0.38 | 0.46 | – | – | –
7 | O=C1C(Cl)=C(Cl)C(=O)c2cc([N+](=O)[O-])ccc21 [Example 9, 2,3-Dichloro-6-nitro-1,4-naphthoquinone] | 0.17 | 0.91 | 0.66 | 0.48 | – | – | –
8 | CC1=CC(=O)c2ccccc2C1=O [Example 10, 2-Methyl-1,4-naphthoquinone] | 0.04 | 0.05 | 0.09 | 0.08 | – | – | –
9 | COC1=CC(=O)c2ccccc2C1=O [Example 11, 2-Methoxy-1,4-naphthoquinone] | 0.06 | 0.04 | 0.21 | 0.11 | – | – | –
10 | NC1=C(Cl)C(=O)c2ccccc2C1=O [Example 12, 2-Amino-3-chloro-1,4-naphthoquinone] | 0.06 | 0.15 | 0.19 | 0.14 | – | – | –
11 | CC(C)=CC[C@@H](O)C1=CC(=O)c2c(O)ccc(O)c2C1=O [Example 13, Shikonin] | 0.04 | 0.92 | 1.52 | 0.85 | – | – | 6.28
12 | CC(=O)O[C@H](CC=C(C)C)C1=CC(=O)c2c(O)ccc(O)c2C1=O [Example 14, Acetylshikonin] | 0.05 | 1.03 | 1.00 | 0.81 | – | – | 5.73
13 | CC(C)=CC[C@@H](OC(=O)C(C)C)C1=CC(=O)c2c(O)ccc(O)c2C1=O [Example 15, Isobutyrylshikonin] | 0.03 | 1.79 | 1.19 | 1.23 | – | – | 6.29
14 | CC(C)=CCC(OC(=O)CC(C)C)C1=CC(=O)c2c(O)ccc(O)c2C1=O (stereo not shown) [Example 16, Isovalerylshikonin] | 0.04 | 0.93 | 0.85 | 0.76 | – | – | –
15 | CC(C)=CC[C@@H](OC(=O)CC(C)(C)O)C1=CC(=O)c2c(O)ccc(O)c2C1=O [Example 17, β-Hydroxyisovalerylshikonin] | 0.10 | 0.71 | 0.80 | 0.25 | – | – | 5.57
16 | CCC(C)C(=O)O[C@H](CC=C(C)C)C1=CC(=O)c2c(O)ccc(O)c2C1=O (stereo partly drawn) [Example 18, α-Methyl-n-butylshikonin] | 0.02 | 1.00 | 1.40 | 2.76 | – | – | –
17 | CC(C)=CCC(OC(=O)C=C(C)C)C1=CC(=O)c2c(O)ccc(O)c2C1=O (stereo not drawn) [Example 19, β,β-Dimethylacrylshikonin] | 0.02 | 0.95 | 1.35 | 2.28 | – | – | –
18 | CC(C)=CC[C@H](O)C1=CC(=O)c2c(O)ccc(O)c2C1=O [Example 20, Alkannin] | 0.04 | 0.11 | 0.62 | 1.13 | – | – | –
